The values below come from ChEMBL document CHEMBL1201862, “PubChem BioAssay data set” (2004).

The source made the active and inactive calls.

The subject of one assay is J774.A1. The assay is described as follows: Confirmation of image-based Screening Assay for Inhibitors of Phagocytosis. [Related pubchem assays (depositor defined):AID1029, AID1643]. The assay is classed as functional, cell-based. Conditions: Mus musculus.
The nature of assay [1]: cytotoxicity in HEK-293T cells, dose response, cytotoxicity control for TCR NF-kB inhibitor project, luminescence, T-cell screen hits (AID 489026).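 Also: cells exposed to compound about 14 hours before the viability readout.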 The assay is classed as functional, cell-based.
Assay [2] is described as follows: Vero cell cytotoxicity, dose response, cytotoxicity control for Vif-APOBEC3G degradation inhibitor project, Vero cells (AID 1117358). The assay is classed as functional. Conditions: Human immunodeficiency virus 1, Vero.
Assay [3] can be described thus: inhibitors of intracellular T. cruzi replication, confirmation, NIH3T3 host cells, beta-gal luminescence (AID 2044).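 Also: intracellular parasites grown in NIH/3T3 mouse fibroblasts as host cells; luminescent beta-galactosidase reporter signal from transgenic T. cruzi replicating inside host cells; inhibitors lower the luminescence signal.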 Type of assay: functional, cell-based.
Assay [4] can be described thus: cytotoxicity toward NIH3T3 fibroblasts, dose response, counter-screen, cell-based, ATP luminescence, mouse fibroblasts (AID 2010).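 Also: cells exposed to compound for about 90 hours before reading.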 The assay is classed as functional. For orientation: The purpose of a counterscreen is to sort out artefacts and off-target activity.
Assay [5] can be described thus: inhibition of K1F phage lysis, E. coli UTI89, bacterial capsule biogenesis inhibitors, alamar blue (AID 488966). The assay is classed as functional. In general terms: Alamar Blue is a resazurin reagent that responds to reducing activity.
Assay [6] has as its target T1, Heat shock factor protein 1 (Mus musculus, UniProt P38532).
T1 sequence (P38532 whole entry): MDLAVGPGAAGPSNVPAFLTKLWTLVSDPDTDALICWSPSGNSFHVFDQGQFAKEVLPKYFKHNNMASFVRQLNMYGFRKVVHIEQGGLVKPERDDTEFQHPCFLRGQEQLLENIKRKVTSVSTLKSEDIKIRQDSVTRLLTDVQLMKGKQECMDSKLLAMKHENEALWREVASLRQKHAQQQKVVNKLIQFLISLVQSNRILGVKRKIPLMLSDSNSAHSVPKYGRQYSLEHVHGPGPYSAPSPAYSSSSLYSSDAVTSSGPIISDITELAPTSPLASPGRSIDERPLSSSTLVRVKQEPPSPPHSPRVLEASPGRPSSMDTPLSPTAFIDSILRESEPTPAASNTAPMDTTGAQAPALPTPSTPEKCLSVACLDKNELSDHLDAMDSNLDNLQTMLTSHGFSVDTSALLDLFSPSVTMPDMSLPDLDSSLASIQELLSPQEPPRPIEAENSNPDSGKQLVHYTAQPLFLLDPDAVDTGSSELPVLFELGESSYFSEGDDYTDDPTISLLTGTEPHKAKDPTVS
The assay is described as follows: HSF1 potentiators in luciferase reporter cells, confirmation, cell-based, NIH3T3, luminescence, dose retest (AID 435004).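 Also: stress induced by proteasome inhibitor MG132 added 30 min after compound; luciferase reporter driven by HSF1 response element in NIH3T3 cells; actives raise luminescence as potentiators of the MG132 stress response.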 The assay is classed as functional. For orientation: In a reporter assay the amount or activity of a reporter protein is the signal.

In assay [7] the target is FAD-linked sulfhydryl oxidase ALR (Homo sapiens, UniProt P55789). The assay is described as follows: inhibitors of human ALR sulfhydryl oxidase, dose response, biochemical, H2O2 detection, luminescence, cherry-pick (AID 493248).
A further assay has as its system Vero. The assay is described as follows: cells. The assay is classed as functional. Conditions: Chlorocebus sabaeus.
Assay [8] is described as follows: DNA binding of candidate compounds, dose response, artefact control for RAD54 inhibitor project, biochemical, fluorescence polarization, cherry-pick (AID 651673). The assay is classed as functional.
Assay [9] addresses T2, DNA repair and recombination protein RAD54-like (Homo sapiens, UniProt Q92698).
T2 sequence (Q92698 whole entry): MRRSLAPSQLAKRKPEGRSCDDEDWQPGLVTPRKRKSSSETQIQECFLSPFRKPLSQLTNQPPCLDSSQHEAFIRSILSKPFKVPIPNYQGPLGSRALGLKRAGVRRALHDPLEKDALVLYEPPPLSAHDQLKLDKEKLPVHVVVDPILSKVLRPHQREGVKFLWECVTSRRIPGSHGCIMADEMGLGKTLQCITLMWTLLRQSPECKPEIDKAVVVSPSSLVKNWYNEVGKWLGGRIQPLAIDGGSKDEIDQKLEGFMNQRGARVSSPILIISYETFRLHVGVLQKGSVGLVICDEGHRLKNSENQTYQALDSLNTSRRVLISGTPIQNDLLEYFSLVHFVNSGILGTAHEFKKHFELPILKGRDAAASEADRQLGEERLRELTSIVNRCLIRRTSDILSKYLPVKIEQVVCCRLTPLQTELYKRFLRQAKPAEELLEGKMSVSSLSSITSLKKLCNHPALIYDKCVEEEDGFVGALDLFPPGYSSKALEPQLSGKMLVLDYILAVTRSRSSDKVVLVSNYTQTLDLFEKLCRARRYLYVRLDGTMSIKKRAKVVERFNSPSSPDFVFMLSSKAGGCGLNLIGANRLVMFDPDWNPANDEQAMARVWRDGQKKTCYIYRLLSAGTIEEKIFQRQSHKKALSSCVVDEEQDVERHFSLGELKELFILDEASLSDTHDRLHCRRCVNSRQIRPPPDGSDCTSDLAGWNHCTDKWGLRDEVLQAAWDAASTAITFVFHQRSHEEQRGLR
Nature of the assay: inhibitors of human RAD54 branch migration, confirmation, biochemical, fluorescence, cherry-picked samples, dose series (AID 651657). The assay is classed as functional.

Assay [10] addresses T3, DNA repair protein RAD52 homolog (Homo sapiens, UniProt P43351).
T3 sequence (P43351 whole entry): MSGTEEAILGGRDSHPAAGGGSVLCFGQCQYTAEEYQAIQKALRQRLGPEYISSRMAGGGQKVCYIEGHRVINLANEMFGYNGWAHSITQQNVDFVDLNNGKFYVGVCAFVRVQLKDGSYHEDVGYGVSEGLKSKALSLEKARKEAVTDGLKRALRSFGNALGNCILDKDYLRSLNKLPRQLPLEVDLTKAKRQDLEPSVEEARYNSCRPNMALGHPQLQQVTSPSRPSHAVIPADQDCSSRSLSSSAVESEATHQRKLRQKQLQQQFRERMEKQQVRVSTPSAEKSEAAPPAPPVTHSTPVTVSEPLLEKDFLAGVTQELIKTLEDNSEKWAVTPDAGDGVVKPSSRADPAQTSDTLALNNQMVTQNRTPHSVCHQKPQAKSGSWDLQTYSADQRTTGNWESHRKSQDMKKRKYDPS
The assay is classed as functional, biochemical.

Assay [11] addresses Glutathione S-transferase omega-1 (Homo sapiens, UniProt P78417). The assay is described as follows: GSTO1 inhibitor potency, recombinant enzyme, late-stage follow-up, biochemical, SE-Rh probe, in-gel fluorescence, powder samples, set 2 (AID 463142). Type of assay: functional.
A further assay deals with ORF 73 (Human herpesvirus 8, UniProt O40947). Nature of the assay: inhibitors of C-LANA binding to LBS DNA, dose response, biochemical, fluorescence polarization, cherry-picked samples (AID 504725).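 Also: fluorescence polarization of a labeled DNA duplex reporting LANA DNA binding; potency is for inhibitors that block LANA binding to the DNA.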 On the set-up: species or system Human gammaherpesvirus 8.
The target in assay [12] is T4, Carboxy-terminal domain RNA polymerase II polypeptide A small phosphatase 1 (Homo sapiens, UniProt Q9GZU7).
T4 sequence (Q9GZU7 whole entry): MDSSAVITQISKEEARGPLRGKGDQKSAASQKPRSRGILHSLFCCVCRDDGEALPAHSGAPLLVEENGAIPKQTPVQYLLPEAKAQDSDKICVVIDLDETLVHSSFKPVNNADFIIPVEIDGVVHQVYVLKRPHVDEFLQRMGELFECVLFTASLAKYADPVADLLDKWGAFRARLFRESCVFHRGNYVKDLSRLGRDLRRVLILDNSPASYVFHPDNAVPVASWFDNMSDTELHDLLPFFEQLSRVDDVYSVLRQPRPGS
The assay is described as follows: inhibitors of CTDSP1, concentration-response testing, biochemical assay, absorbance-based, actives from ultra-high-throughput screening (AID 540297). The assay is classed as functional.

The target of assay [13] is T5, Histone-lysine N-methyltransferase NSD2 (Homo sapiens, UniProt O96028).
T5 sequence (O96028 whole entry): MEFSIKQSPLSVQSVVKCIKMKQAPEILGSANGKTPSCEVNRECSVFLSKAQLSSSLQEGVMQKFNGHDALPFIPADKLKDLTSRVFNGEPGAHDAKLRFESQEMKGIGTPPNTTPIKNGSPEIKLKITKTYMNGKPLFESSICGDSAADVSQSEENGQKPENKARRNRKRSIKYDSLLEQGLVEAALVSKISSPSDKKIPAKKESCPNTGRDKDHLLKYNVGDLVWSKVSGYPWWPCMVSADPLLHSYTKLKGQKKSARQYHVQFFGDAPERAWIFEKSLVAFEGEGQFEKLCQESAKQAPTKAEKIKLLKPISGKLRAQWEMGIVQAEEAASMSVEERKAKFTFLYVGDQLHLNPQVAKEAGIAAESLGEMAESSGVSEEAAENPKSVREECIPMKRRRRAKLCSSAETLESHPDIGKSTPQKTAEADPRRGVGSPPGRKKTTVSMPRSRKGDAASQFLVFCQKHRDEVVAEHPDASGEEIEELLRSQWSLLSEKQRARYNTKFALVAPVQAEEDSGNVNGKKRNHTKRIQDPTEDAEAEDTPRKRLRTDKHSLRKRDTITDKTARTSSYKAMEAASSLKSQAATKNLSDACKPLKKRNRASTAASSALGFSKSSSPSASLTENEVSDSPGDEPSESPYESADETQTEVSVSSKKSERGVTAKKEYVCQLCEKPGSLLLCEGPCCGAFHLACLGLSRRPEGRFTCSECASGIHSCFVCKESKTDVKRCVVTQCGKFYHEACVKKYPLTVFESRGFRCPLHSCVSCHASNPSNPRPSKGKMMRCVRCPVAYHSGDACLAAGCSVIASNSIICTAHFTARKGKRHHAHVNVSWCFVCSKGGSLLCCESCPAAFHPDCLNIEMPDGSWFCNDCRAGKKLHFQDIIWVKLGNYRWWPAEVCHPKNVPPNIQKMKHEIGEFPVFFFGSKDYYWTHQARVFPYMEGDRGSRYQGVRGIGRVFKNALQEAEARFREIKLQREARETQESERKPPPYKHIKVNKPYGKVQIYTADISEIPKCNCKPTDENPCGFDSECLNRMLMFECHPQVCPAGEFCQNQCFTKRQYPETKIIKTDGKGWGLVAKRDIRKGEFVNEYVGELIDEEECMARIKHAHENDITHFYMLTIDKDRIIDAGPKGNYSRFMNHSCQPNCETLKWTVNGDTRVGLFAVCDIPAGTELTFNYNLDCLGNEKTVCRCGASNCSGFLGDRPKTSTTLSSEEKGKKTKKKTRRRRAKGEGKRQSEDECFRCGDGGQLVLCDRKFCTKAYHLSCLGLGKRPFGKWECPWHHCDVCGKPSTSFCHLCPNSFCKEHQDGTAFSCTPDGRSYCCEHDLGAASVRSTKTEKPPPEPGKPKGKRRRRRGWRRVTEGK
The assay is classed as biochemical.

ORF 73, sequence (O40947 whole entry, the tested form may be a part): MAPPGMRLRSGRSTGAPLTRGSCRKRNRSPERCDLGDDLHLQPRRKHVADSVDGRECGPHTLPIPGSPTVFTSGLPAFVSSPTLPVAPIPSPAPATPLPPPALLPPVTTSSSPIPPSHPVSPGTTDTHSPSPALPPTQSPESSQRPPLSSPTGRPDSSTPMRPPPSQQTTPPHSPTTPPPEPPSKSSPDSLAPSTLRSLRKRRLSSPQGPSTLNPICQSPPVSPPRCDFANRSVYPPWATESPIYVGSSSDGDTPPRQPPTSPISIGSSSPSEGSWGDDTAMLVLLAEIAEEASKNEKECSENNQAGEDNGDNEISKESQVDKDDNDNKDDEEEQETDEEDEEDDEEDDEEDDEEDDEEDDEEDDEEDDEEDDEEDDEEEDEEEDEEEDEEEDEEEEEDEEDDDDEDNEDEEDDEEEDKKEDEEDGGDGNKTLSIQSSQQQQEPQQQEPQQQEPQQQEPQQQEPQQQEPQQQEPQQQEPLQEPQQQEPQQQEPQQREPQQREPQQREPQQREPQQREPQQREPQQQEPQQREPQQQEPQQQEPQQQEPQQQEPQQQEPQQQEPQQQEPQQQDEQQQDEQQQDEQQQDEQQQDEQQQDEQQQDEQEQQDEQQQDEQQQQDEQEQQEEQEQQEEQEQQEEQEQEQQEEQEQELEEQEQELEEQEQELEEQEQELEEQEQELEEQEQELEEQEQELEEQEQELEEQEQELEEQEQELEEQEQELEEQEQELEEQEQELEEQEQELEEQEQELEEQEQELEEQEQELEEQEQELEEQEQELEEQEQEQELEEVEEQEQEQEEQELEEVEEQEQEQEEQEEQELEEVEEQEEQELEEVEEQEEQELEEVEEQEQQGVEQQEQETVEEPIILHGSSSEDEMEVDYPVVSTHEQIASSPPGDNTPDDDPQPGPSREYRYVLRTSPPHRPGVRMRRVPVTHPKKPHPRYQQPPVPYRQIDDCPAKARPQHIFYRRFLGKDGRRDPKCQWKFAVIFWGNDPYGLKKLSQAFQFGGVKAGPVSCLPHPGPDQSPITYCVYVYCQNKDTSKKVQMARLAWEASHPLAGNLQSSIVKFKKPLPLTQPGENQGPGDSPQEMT
Glutathione S-transferase omega-1, sequence (P78417 whole entry): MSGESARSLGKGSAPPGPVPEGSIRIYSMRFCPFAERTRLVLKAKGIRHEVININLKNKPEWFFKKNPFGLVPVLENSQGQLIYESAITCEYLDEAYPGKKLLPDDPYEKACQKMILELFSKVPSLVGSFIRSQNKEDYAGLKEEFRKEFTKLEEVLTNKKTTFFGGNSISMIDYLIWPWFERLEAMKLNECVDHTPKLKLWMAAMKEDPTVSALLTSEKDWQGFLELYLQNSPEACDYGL
FAD-linked sulfhydryl oxidase ALR, sequence (P55789 whole entry): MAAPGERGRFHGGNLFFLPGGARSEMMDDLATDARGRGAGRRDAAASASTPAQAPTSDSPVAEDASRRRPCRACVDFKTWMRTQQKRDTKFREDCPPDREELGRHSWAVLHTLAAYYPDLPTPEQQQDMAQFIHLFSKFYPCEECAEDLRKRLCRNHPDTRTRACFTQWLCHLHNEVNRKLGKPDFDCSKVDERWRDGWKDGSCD

In general, IC50 refers to the concentration that inhibits the measured activity by half. Broadly, the CC50 is the concentration giving 50% cytotoxicity. As to `COc1ccc(C2=NOC(C(=O)NCc3cccs3)C2)cc1OC` (stereo unspecified), the IC50 in the assay on J774.A1 was 0.609 µM (active); in assay [1], > 80 µM (inactive). Also, the CC50 in [2] is > 40 µM (active).
Broadly, the EC50 is the concentration at which the effect is half-maximal. As a reminder, the AC50 is the midpoint of the concentration-response curve, whichever way the signal moves. Take `CN1CCN(c2ccc(Nc3ccnc4cc(Cl)ccc34)cc2)CC1`: the EC50 in [3] is 1.39 µM (active); in [4], 10.4 µM (active); in assay [6], > 260 µM (inactive). The IC50 in [5] was > 300 µM (active). Moreover, the AC50 in [7] is 5.43 µM (active); in assay [8], 56.1 µM (active); in assay [9] it was 6.94 µM (active); in [10], 2.47 µM (active). Moreover, the CC50 in the assay with Vero is 17.1 µM (active).
For `O=C(CCl)N(CCCCCNC(=O)C(F)(F)F)c1ccc([N+](=O)[O-])cc1`, the IC50 in assay [11] is 0.034 µM (active).
As for `O=C(O)COc1ccc2c(c1)O/C(=C\c1ccco1)C2=O`, the AC50 on ORF 73 was 157 µM (active); in assay [13], > 20 µM (inactive). The IC50 in [12] was 3.74 µM (active).
